Experimental data from patent publication US9850183B2, “Conjugates derived from non-steroidal anti-inflammatory drugs and methods of use thereof in imaging” (Reiley Pharmaceuticals, Inc., priority 2014, dated 2017).

Legend:
ovine COX-1 = molecular target: T1, ovine COX-1 (Ovis aries, UniProt P05979); assay: biochemical; conditions: ovine COX-1 enzyme, EIA; read-out: COX-1 IC50 (μm) enzyme
T1 sequence (P05979 25-600): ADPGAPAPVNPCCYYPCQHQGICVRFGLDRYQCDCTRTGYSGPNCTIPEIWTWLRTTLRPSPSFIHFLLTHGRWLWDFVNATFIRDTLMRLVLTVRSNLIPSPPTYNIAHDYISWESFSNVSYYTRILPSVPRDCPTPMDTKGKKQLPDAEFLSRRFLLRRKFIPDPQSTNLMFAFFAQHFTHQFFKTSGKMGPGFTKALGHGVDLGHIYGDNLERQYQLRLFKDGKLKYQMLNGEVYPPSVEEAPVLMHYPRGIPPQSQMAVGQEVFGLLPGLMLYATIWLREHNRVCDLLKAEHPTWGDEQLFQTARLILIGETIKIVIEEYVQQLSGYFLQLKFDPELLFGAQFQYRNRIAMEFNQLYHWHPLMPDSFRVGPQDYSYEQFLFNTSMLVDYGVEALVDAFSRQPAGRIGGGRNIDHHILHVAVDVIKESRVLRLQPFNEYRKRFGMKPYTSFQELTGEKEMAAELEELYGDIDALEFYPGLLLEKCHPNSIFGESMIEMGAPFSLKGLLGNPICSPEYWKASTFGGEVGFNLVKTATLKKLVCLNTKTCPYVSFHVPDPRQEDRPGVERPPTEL
Procedure: (§1) The ability of compounds to inhibit ovine COX-1 and human COX-2 was determined using a commercially available enzyme immunoassay (EIA) kit (catalog no. 701090 (COX-1); 701080 (COX-2) Cayman Chemical Co., Ann Arbor, Mich., USA) according to the manufacturer's protocol. COX catalyzes the first step in the biosynthesis of AA to PGH2. PGF2α, produced from PGH2 by reduction with stannous chloride, was measured by EIA (ACE™ competitive EIA, Cayman Chemical, Ann Arbor, Mich., USA). Briefly, to a series of supplied reaction buffer solutions [960 μl 0.1 M Tris-HCl (pH 8.0) containing 5 mM EDTA and 2 mM phenol] with either COX-1 or COX-2 (10 μl) enzyme in the presence of heme (10 μl), 10 μl of various concentrations of test drug solutions were added. These solutions were incubated for 15 min at 37° C. and subsequently 10 μl AA solution (100 μM) was added. The COX reaction was stopped by the addition of 30 μl stannus chloride after 2 min, mixed immediately, supernatants were 2000 fold diluted. The produced PGF2α was measured by EIA. This assay is based on the competition between PGs and a PG-acetylcholinesterase conjugate (PG tracer) for a limited amount of PG antiserum. The amount of PG tracer that is able to bind to the PG antiserum is inversely proportional to the concentration of PGs in the wells since the concentration of the PG tracer is held at a constant while the concentration of PGs varies. The specific antiserum-PG complex bound to a mouse anti-rabbit IgG that had been previously attached to the well. The plate was washed to remove any unbound reagents and 200 μl Ellman's reagent (5,5′-dithiobis-(2-nitrobenzoic acid), which contains the substrate to acetylcholine esterase, was added to the well. The product of this enzymatic reaction generates a distinct yellow color that absorbs at 406 nm. The intensity of this color, determined by spectrophotometry, is proportional to the amount of PG tracer bound to the well, which is inversely proportional to the amount of PGs present in the well during the incubation. Percent inhibition was calculated by the comparison of the compounds treated to the various control incubations.
(§2) Dose-response curves were generated using XLFit (IDBS, Surrey, UK) or Prism (GraphPad Software, La Jolla, Calif., US) to calculate IC50 values for each compound tested.

COX-2 = molecular target: T2, COX-2 (Mus musculus, UniProt Q05769); assay: Cell-based COX-2 assay (PGE2 in LPS/IFN-g stimulated RAW264.7 cells); conditions: RAW264.7 murine macrophages, 1 μg/ml LPS and 10 U/ml IFN-g for 7 h, PGE2 readout
T2 construct: endogenous in cells; host or cells: RAW264.7 murine macrophages, stimulated with LPS and IFN-g
T2 sequence (Q05769 18-604): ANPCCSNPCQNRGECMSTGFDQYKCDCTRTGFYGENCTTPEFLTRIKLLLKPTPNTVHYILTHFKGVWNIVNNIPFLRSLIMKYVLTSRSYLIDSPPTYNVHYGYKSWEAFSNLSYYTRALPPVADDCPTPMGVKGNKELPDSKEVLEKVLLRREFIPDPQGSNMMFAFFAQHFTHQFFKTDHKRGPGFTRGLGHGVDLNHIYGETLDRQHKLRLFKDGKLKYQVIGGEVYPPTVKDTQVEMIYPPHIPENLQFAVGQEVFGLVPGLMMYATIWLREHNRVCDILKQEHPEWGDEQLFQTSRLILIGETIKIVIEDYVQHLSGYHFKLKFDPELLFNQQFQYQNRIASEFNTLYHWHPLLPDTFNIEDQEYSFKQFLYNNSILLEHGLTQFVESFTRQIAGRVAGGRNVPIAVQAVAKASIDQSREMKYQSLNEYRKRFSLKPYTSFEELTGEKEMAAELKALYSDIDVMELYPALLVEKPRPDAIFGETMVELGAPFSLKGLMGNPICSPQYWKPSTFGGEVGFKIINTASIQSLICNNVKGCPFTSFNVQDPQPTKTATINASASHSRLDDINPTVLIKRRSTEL
Procedure: RAW264.7 murine macrophages were obtained from the Cell Bank of Shanghai Institute of Biochemistry and Cell Biology, Chinese Academy of Sciences (Shanghai, China) and cultured in Dulbecco's modified Eagle's medium containing 100 U/ml penicillin and 100 μg/ml streptomycin at 37° C. in 5% CO2.
RAW264.7 cells were plated at a density of 2.5×10^5/ml cells in a 96-well plate with 0.1 ml of culture medium per well and cultured overnight. The cells were pre-incubated for 30 min with various doses of compounds and stimulated for 7 h with 1 μg/ml LPS and 10 U/ml IFN-g. The cell culture supernatants were collected immediately following treatment and centrifuged at 1,000 rpm for 5 min to remove the particulate matter. PGE2 was determined using a Prostaglandin E2 assay kit (catalog no. 62P2APEB; Cisbio Co.,). 10 μL of cell supernatant was transferred to a 384-well low volume plate (e.g. Corning® 3544), 5 μL of PGE2-d2 was added, followed by 5 μL anti-PGE2 Cryptate as a negative control. Replace the standard by 10 μL of diluent and PGE2-d2 by 5 μL of reconstitution buffer, Cal0 (for positive control), replace the standard by 10 μL of diluent. Incubate at 4° C. overnight. After centrifuging at 1,000 rpm for 1 min, the dual fluorescence emissions of 615 and 665 nm with a 320 nm excitation were measured using an Envision plate reader (Perkin Elmer, Shelton, Conn.). The results are expressed as the ratio of 665 nm/615 nm emissions.
as §2

human COX-2 = molecular target: T3, human COX-2 (Homo sapiens, UniProt P35354); assay: COX-2 enzyme assay (EIA kit, PGF2α readout); format: biochemical; conditions: human COX-2 enzyme, EIA; 15 min pre-incubation at 37° C.; read-out: COX-2 IC50 (μM) enzyme
T3 construct: purchased Cayman Chemical Co., Ann Arbor, Mich., USA 701080
T3 sequence (P35354 18-604): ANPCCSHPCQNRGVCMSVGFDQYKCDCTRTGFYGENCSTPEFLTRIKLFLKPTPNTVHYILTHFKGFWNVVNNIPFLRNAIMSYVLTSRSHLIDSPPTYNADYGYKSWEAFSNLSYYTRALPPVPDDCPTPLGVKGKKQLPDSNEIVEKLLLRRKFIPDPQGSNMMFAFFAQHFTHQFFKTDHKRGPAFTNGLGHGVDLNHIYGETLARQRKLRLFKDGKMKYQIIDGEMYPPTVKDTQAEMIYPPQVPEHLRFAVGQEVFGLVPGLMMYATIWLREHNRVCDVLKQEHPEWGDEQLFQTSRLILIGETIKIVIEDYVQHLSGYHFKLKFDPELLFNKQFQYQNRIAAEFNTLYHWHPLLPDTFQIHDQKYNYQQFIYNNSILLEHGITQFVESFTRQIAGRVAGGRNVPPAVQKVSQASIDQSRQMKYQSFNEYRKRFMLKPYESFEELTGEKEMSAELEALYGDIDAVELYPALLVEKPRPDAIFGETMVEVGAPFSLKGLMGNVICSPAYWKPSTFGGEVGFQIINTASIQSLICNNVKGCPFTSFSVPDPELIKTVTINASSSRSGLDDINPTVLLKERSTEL
Procedure: as §1, §2

SMILES: COc1ccc2c(c1)c(CC(=O)NCCCOCCC[N+]13CC[S][Re-]14(=[O])[S]CC[N]4CC3)c(C)n2C(=O)c1ccc(Cl)cc1 (stereo not drawn) [Compound 306]
- IC50 (ovine COX-1): > 30000 nM
- IC50 (COX-2): 0.2 µM
- IC50 (human COX-2): 0.7 µM
